Results taken from US20190358264A1, “METHODS OF TREATING DISEASES ASSOCIATED WITH ILC2 CELLS” (Limm Therapeutics, SA, priority 2016, published 2019).

Tests used:
[1] = system: Nippostrongylus brasiliensis; assay: NmU23 treatment of N. brasiliensis infected mice; format: in vivo, mouse
Experimental: FIGS. 12a-12f: (FIGS. 12a-12c) Mice were infected with N. brasiliensis larvae and treated with NmU23 peptide (8 g/day) or PBS (control). Lungs were analysed at day 2 post-infection. FIG. 12a, ILC2 response in lungs from NmU23 treated mice (n=5) compared to control (n=5). FIG. 12b, Burden of infection in lungs of infected mice treated with PBS (n=5) or NmU23 (n=5). FIG. 12c, Pulmonary hemorrhage in lung of infected mice treated with NmU23 compared to control. (FIGS. 12d-12f) Mice were infected with N. brasiliensis larvae and treated with NmU23 peptide (8 g/day) or PBS (control). Lungs and small intestine were analysed at day 6 post-infection. FIG. 12d, Neutrophils and eosinophils infiltrate in broncho-alveolar lavage (BAL) in infected mice treated with NmU23 versus PBS. Control n=5; NmU23 n=5. FIG. 12e, Mastocytes and Macrophages infiltrate in broncho-alveolar lavage (BAL) in infected mice treated with NmU23 versus PBS. Control n=5; NmU23 n=5. FIG. 12f, Burden of infection in small intestine of infected mice treated with PBS (n=5) or NmU23 (n=5). Error bars show s.e.m. *P<0.05; **P<0.01; ***P<0.001; ****P<0.0001; ns not significant.
For in vitro experiments, purified lung and small intestine lamina propria ILC2s were FBS starved for 2 hours prior to stimulation and cultured in complete RPMI (supplemented with 10% foetal bovine serum (FBS), 1% hepes, sodium pyruvate, glutamine, streptomycin and penicillin) at 37° C. For mRNA analysis, ILC2s were stimulated overnight with recombinant mouse Neuromedin U 23 peptide (NmU23, 100 ng/mL; Phoenix pharmaceuticals). Both NmU23-stimulated and control ILC2s were cultured in the presence of IL-2 and IL-7 (10 ng/mL; Peprotech). ILC2s were lysed using RLT buffer (Qiagen). For cytokine protein analysis, ILC2s were incubated exclusively with brefeldin A (eBioscience) for 12 hours prior to intracellular staining. For in vivo experiments, B6 mice were injected intraperitoneal with NmU23 peptide (2 g/day) during Nippostrongylus brasiliensis infection or with a single dose of NmU23 (20 μg) and analyzed after 8 hours. Control mice were treated with PBS alone.
Nippostrongylus brasiliensis was maintained by monthly passages in Lewis rats as previously described^34. Infective (iL3) worms were kindly provided by Nicola Harris (Lausanne, Switzerland). iL3 larvae were treated for 15 minutes with penicillin/streptomycin (300 U/mL; Thermo Fisher Scientific), gentamicin (1.5 mg/mL; Sigma) and tetracyclin (30 μg/mL; Sigma), washed with PBS and counted under a stereomicroscope. Mice were injected subcutaneously with 500 iL3 in 200 μL of sterile PBS using a 21 G needle. Mice were sacrificed at day 2 post-infection and lungs were collected and analysed.
Lung parasite burden was quantified in finely minced lungs and as previously described^34. Lung were placed on sterile cheesecloth and suspended in a 50 mL tube containing PBS at 37° C. for at least 4 hours. Viable worms that migrate out into the bottom of the tube were counted under a stereomicroscope (steREO Lumar V12; Zeiss).
Mice were sacrificed by cervical dislocation, and caudal lobe of the right lung was harvested, fixed in 10% neutral buffered formalin and processed for paraffin embedding. […] Slides were analyzed by a pathologist blinded to experimental groups and images were acquired in a Leica DM2500 microscope, coupled with a Leica MC 170 HD microscope camera. […]

NFAT = NFAT translocation in ILC2 by confocal microscopy; format: cell-based, mouse; conditions: NmU23 100 ng/mL, 90 minutes, Lamina Propria ILC2, anti-NFAT2 staining (FIG. 11c)
Experimental: FIGS. 11a-11b: ILC2 were FBS deprived for 2 hours prior to treatment with either (FIG. 11a) 11R-VIVIT (inhibits NFAT activation) (10 μM) or (FIG. 11b) cyclosporin A (CsA, […]). Expression of type 2 cytokines were measured by quantitative RT-PCR (FIGS. 11a,11b). n=3-6. FIG. 11c, Deprivated ILC2 from Lamina Propria were stimulated 90′ with NmU23 (100 ng/mL), fixed, permeabilized and stained with anti-NFAT2 monoclonal antibody (abcam). Cells were analyzed by confocal microscopy. *P<0.05; **P<0.01; ***P<0.001; ****P<0.0001; ns not significant.

Substance: recombinant mouse Neuromedin U 23 peptide (FKAEYQSPSVGQSKGYFLFRPRN; listed as Mus musculus) [NmU23, NMUR1 agonist neuropeptide, Phoenix pharmaceuticals]
- lung haemorrhage in N. brasiliensis infected mice ([1]; NmU23 8 g/day vs PBS, day 2 post-infection): reduced lung haemorrhage
- ILC2-derived IL-5, IL-13 and Amphiregulin in lungs of N. brasiliensis infected mice ([1]; NmU23 8 g/day vs PBS, day 2 post-infection (FIG. 12a)): increased ILC2-derived IL-5, IL-13 and Amphiregulin
- lung parasite burden in N. brasiliensis infected mice ([1]; NmU23 8 g/day vs PBS, day 2 post-infection (FIG. 12b)): decreased
- intestinal parasite burden in N. brasiliensis infected mice ([1]; NmU23 8 g/day vs PBS, small intestine, day 6 post-infection (FIG. 12f)): decreased
- eosinophil infiltrates in the lung of N. brasiliensis infected mice ([1]; NmU23 intraperitoneal 2 g/day vs PBS, lungs at 48 hours): increased eosinophil infiltrates
- translocation of NFAT in ILC2 (NFAT): efficient translocation of NFAT from the cytoplasm to the nucleus
